These results are taken from article PMC9964746, “Mechanism of Action and Structure–Activity Relationships of Tetracyclic Small Molecules Acting as Universal Positive Allosteric Modulators of the Cholecystokinin Receptor” (Membranes, 2023).

Molecules are shown by their SMILES. Where “and” joins values, the source holds several entries; their conditions need not be identical. Equal entries are not always repeated.

Common to all, as to format: cell-based
The target in assay [1] is T1, vasopressin-2 receptor (AVP2R) (Homo sapiens, UniProt P30518).
T1 construct: expressed in transfected cells; host or cells: CHO-K1 (PAM format); HEK-293 (agonist format)
T1 sequence (P30518 whole entry): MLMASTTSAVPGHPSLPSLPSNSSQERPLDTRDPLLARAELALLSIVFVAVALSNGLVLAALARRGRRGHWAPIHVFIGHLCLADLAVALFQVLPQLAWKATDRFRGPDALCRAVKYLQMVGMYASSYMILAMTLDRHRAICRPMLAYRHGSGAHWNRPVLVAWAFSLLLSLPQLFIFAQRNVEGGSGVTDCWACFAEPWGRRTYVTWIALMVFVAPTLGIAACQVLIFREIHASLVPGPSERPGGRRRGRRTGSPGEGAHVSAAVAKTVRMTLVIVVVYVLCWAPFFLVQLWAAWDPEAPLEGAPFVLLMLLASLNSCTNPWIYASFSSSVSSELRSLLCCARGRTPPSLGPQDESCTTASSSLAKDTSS
Put plainly: AVP2R cAMP HTRF accumulation assay. The following applies: CHO-K1 AVP2R cells; for AVP2R PAM (cAMP) Score (activity score = normalized Emax × pEC50): PAM format; for EC50 / Emax: PAM format with vasopressin, original hits: agonist and PAM data combined, average ± SD. As to the method:
Possible off-target biological effects. […] Here, we tested them at the vasopressin-2 receptor (AVP2R), representing a class A GPCR structurally related to CCK1R, which is coupled to Gs. The activity at AVP2R was tested using AVP2R-overexpressing CHO-K1 (PAM format) or HEK-293 (agonist format) cells, stimulating the cells with vasopressin. Original hits were tested in both agonist and PAM formats. Since all recognized compound responses were present in both formats, we continued to screen analogs in only the PAM format (also able to capture agonist effects) in CHO-K1 AVP2R cells for potential enhanced sensitivity. The dose–response data sets for original hits were combined, as the PAM and agonist effects were indistinguishable. In brief, arginine vasopressin (AVP) orthosteric stimulator dilutions and ligand and compound dose–response titrations in DMSO were transferred onto a 1536-well plate (Corning #3725) using an Echo liquid handler (Labcyte). Thawed cryopreserved cell stocks were diluted in stimulation buffer consisting of HBSS (Hank’s Balanced Salt Solution with Ca^2+ and Mg^2+, Gibco #24020117), 5 mM HEPES (hydroxyethyl piperazineethanesulfonic acid), 0.5 mM IBMX (3-isobutyl-1-methylxanthine, Sigma-Aldrich), and 0.075% BSA (7.5% DTPA-purified bovine serum albumin, PerkinElmer). The resulting cell suspension was added to the microplate and incubated with test compounds at room temperature for 30 min. Then, the detection reagents from the Cisbio cAMP Gs Dynamic HTRF detection kit were added. The plate was kept at room temperature for 30 min and read on a PHERAstar FSX microplate reader. Dose–response curves were performed as 16-point 2-fold dilutions in duplicate in at least two independent experiments.

Assay [2] concerns the target T2, CCK1R (Homo sapiens, UniProt P32238).
T2 sequence (P32238 1-428): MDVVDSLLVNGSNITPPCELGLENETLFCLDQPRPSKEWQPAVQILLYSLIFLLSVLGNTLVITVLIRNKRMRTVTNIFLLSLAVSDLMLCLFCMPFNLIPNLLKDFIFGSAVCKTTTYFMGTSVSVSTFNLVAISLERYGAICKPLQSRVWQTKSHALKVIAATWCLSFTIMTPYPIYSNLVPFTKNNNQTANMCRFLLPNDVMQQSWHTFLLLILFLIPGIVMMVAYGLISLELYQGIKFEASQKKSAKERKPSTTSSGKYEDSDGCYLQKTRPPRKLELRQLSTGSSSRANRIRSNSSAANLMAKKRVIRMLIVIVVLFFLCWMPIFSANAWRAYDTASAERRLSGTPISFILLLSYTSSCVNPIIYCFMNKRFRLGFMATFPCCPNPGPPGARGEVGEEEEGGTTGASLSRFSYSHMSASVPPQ
Put plainly: IP-One accumulation TR-FRET assay, PAM format, HEK-293 CCK1R cells. Also on record: expressed in transfected cells; host or cells: HEK-293. The following applies: for Emax: HEK293, relative to CCK control; for Emax / CCK1R PAM (IP-One) Score (activity score = normalized Emax × pEC50) / EC50: HEK-293 CCK1R cells; for Emax / CCK1R PAM (IP-One) Score (activity score = normalized Emax × pEC50): PAM format; for Emax / EC50: average ± SD; for EC50: PAM format with EC20 CCK. As to the method:
(§1) For structure–activity relationship studies, we performed myo-inositol-1-phosphate (IP-One) accumulation assays with TR-FRET technology applied to the HEK-293 cell line overexpressing CCK1Rs, as we had described in our high throughput screening effort. In brief, thawed cryopreserved cell stocks were re-suspended in IP-One assay media consisting of phenol-red free DMEM (Corning, Corning, NY, USA, #17-205-CV) with 10% FBS, 1% penicillin (10,000 units)/streptomycin (10 mg) (Pen/Strep, Thermo Fisher Scientific, Waltham, MA, USA, Gibco #15140122), and 1% L-glutamine (200 mM) (Gibco #25030081) and diluted to required cell densities. Then, the cell suspension was dispensed into a 1536-well tissue culture microplate (Corning, #3727), and the plate was incubated overnight at 37 °C and 5% CO^2. After 16–20 h, DMSO or compounds were added with an Echo liquid handler (Labcyte, San Jose, CA, USA), resulting in a top final compound concentration of 50 µM diluted 2-fold for 16-point dose–responses. For the positive allosteric modulator (PAM) format, orthosteric stimulator (CCK) dilutions for control wells were prepared in assay media containing 150 mM lithium chloride (LiCl, 50 mM final, Sigma-Aldrich, St Louis, MO, USA, #L7026). After a 30 min incubation of test compounds at 37 °C and 5% CO2, orthosteric stimulator dilutions (for PAM format) or equivalent dilutions of DMSO (for agonist format) were added to designated wells using BioRaptr (Beckman Coulter, Brea, CA, USA). In addition, CCK control ligand dilutions were included on each test plate. After that, the plate was incubated for 1 h at 37 °C and 5% CO^2 and equilibrated to room temperature. Detection reagents from the IP-One Gq detection kit from Cisbio (Cisbio US Inc., Bedford, MA, USA, #62IPAPEJ) were added, and after 1 h at RT, IP-One content was measured with a PHERAstar FSX microplate reader (BMG Labtech, Ortenberg, Germany). Control ligand dose–responses were analyzed using GraphPad Prism 9.3.1 (San Diego, CA, USA) to validate adequate control and test well concentrations for positive allosteric modulation (PAM) and agonist formats. Dose–response curves were performed as 16-point 2-fold dilutions in duplicates in at least three independent experiments. Large data sets were uploaded and analyzed with CBIS (Chemical and Biology Information System software, ChemInnovation Software, Inc., San Diego, CA, USA). Further data analysis for detailed SAR studies was conducted using the D360 software (Certara).
(§2) The potency and efficacy data for these compounds were used to calculate their activity scores using the following formula: Activity Score = normalized Emax × pEC50. Normalized Emax represents the efficacy of the compound as a fractional response relative to that of the CCK control ligand. pEC50 represents the positive logarithmic value of compound EC50 concentrations in (M).

The target in assay [3] is T2, CCK1R. Put plainly: IP-One accumulation TR-FRET assay, agonist format, HEK-293 CCK1R cells. The following applies: for Emax: HEK293, relative to CCK control, read-out: CCK1R Ago (IP-One) Emax; for Emax / EC50: average ± SD; for EC50: read-out: CCK1R Ago (IP-One) EC50. Also on record: expressed in transfected cells; host or cells: HEK-293. As to the method:
as §1, §2

For the molecule `CN(C)CCNc1ncnc2c1sc1nc(-c3ccccc3)c3c(c12)CCCC3` [CMP-14], in assay [1], the “AVP2R PAM (cAMP) Score (activity score = normalized Emax × pEC50)” value is 3.0 and 2.97; the EC50 came to 4.7 ± 4.1 µM; the Emax came to 56 ± 33%. In addition, in assay [2], the Emax was found to be 44 ± 10%, the “CCK1R PAM (IP-One) Score (activity score = normalized Emax × pEC50)” value worked out at 2.17 and the EC50 is 8.9 ± 1.7 µM. For the same molecule, in assay [3], the “CCK1R Ago (IP-One) Score (activity score = normalized Emax × pEC50)” value worked out at 0.72, the Emax came to 17 ± 5% and the EC50 was found to be 29.7 ± 8 µM.

Regarding `CC(C)Cc1nc2oc3c(N4CCNCC4)ncnc3c2c2c1CCCC2` [CMP-15], in assay [1], the “AVP2R PAM (cAMP) Score (activity score = normalized Emax × pEC50)” value amounted to 2.97, the EC50 was 7.3 ± 3.3 µM and the Emax worked out at 58 ± 15%. Further, in assay [2], the Emax is 43 ± 3%, the “CCK1R PAM (IP-One) Score (activity score = normalized Emax × pEC50)” value is reported as 2.04 and the EC50 came to 17.8 ± 6.2 µM. Besides, the “CCK1R Ago (IP-One) Score (activity score = normalized Emax × pEC50)” value in assay [3] turned out to be 0.

For `CCCc1nc2sc3c(NCCCN(C)C)ncnc3c2c2c1CCCC2` [CMP-18], in assay [1], the “AVP2R PAM (cAMP) Score (activity score = normalized Emax × pEC50)” value is 2.0 and 1.99; the EC50 was 11.8 ± 14 µM; the maximum response (Emax) is 40 ± 17%. Further, in assay [2], the Emax is 43 ± 21%; the “CCK1R PAM (IP-One) Score (activity score = normalized Emax × pEC50)” value was 2.0 and 1.96; the midpoint of the response, the EC50, lay at 12.7 ± 5.5 µM. Moreover, in assay [3], the “CCK1R Ago (IP-One) Score (activity score = normalized Emax × pEC50)” value was 0.

Turning to `CC(C)Cc1nc2oc3c(NCCN(C)C)ncnc3c2c2c1CCC2` [CMP-21], in assay [1], the “AVP2R PAM (cAMP) Score (activity score = normalized Emax × pEC50)” value was 1.7 and 1.74; the EC50 worked out at 22.8 ± 3.8 µM; the maximum response (Emax) was found to be 37 ± 4%. Further, in assay [2], the Emax is 45 ± 23%, the “CCK1R PAM (IP-One) Score (activity score = normalized Emax × pEC50)” value came to 1.9 and the response was half-maximal at 23.8 ± 10.5 µM (EC50). Besides, the “CCK1R Ago (IP-One) Score (activity score = normalized Emax × pEC50)” value in assay [3] is 0.

As to `NCCNc1ncnc2c1sc1nc(N3CCCCC3)c3c(c12)CCCC3` [CMP-22], in assay [1], the “AVP2R PAM (cAMP) Score (activity score = normalized Emax × pEC50)” value is 2.9 and 2.92; the EC50 came out at 2.7 ± 0.7 µM; the maximal response (Emax) is 52 ± 4%. For the same molecule, in assay [2], the Emax amounted to 39 ± 11%; the “CCK1R PAM (IP-One) Score (activity score = normalized Emax × pEC50)” value was 1.9 and 1.87; the EC50 came out at 12.2 ± 4.6 µM. In addition, in assay [3], the “CCK1R Ago (IP-One) Score (activity score = normalized Emax × pEC50)” value is 2.76, the Emax was 60 ± 4.5% and the EC50 is 26.9 ± 1.1 µM.

Regarding `Sc1nnnc2c1sc1nc(N3CCOCC3)c3c(c12)CCCC3` [CMP-52], in assay [2], the Emax was found to be 0% and the “CCK1R PAM (IP-One) Score (activity score = normalized Emax × pEC50)” value is 0. In addition, the “CCK1R IP-One activity (in words)” value in assay [2] (PAM and agonist formats) was “displayed no effects”. Also, in assay [3], the “CCK1R Ago (IP-One) Score (activity score = normalized Emax × pEC50)” value is 0 and the Emax turned out to be 0%.
